# According to patent publication US6713634B2, “Pyrroloazepine derivatives” (Daiichi Suntory Pharma Co., Ltd., priority 1995, dated 2004):
# Legend:
# serotonin-2 receptor = assay: Anti-serotonin (5-HT) action: contraction of isolated superior mesenteric artery induced by 10^−5 M 5-HT; settings: contraction by 10^−5 M 5-HT taken as 100%, guinea pig superior mesenteric artery
# Procedure: (1) Anti-Serotonin (5-HT) Action
# A preparation cut in a helical form was suspended under resting tension of 0.3 g in a Magnus cylinder filled with the Tyrode solution which had been aerated with a gas mixture of 95% O2 and 5% CO2 and maintained at 37° C. Using an isometric transducer (“UL-10”, manufactured by SHINKOH K.K.) and a pressure preamplifier (“DSA-605A”, manufactured by SHINKOH K.K.), variations in tension were measured. The isometric tensions were recorded on a pen-writing recorder (“VP-6537A”, manufactured by NATIONAL K.K.). Taking the contraction induced by 10^−5 M serotonin (5-HT) as 100%, the percent contractions by 10^−5 M 5-HT in the presence of each test drug at 10^−8 M, 10^−7 M and 10^−6 M were determined as anti-5-HT action.
# α1 receptors = assay: Anti-α1 action: tonic contraction of isolated thoracic aorta induced by 10^−5 M norepinephrine; settings: tonic contraction by 10^−5 M norepinephrine taken as 100%, guinea pig thoracic aorta
# Procedure: The thoracic aorta of each Hartley male guinea pig (body weight: 300-500 g) was excised. A preparation cut in a helical form was suspended under 1 g load in a Magnus cylinder filled with the Tyrode solution which had been aerated with a gas mixture of 95% O2 and 5% CO2 and maintained at 37° C. Using an isometric transducer (“TB-612J”, manufactured by Nihon Kohden Corporation) and a pressure preamplifier (“AP-620G”, manufactured by Nihon Kohden Corporation), variations in tension were measured. The isometric tensions were recorded on a thermal pen-writing recorder (“WT-647G”, manufactured by Nihon Kohden Corporation). Taking the tonic contraction induced by 10^−5 M norepinephrine (NE) as 100%, the percent contractions upon addition of each test drug at 10^−8 M and 10^−7 M were determined as α1 action.
SMILES,Anti 5-HT action (% of Control) (serotonin-2 receptor; test drug 10^−6 M),Anti 5-HT action (% of Control) (serotonin-2 receptor; test drug 10^−7 M),Anti 5-HT action (% of Control) (serotonin-2 receptor; test drug 10^−8 M),Anti α1 action (% of Control) (α1 receptors; test drug 10^−7 M),Anti α1 action (% of Control) (α1 receptors; test drug 10^−8 M)
"Cn1ccc2c1C(O)CCN(CCCN1CCC(c3ccccc3)CC1)C2=O (stereo not drawn) [Compound No. 73, 8-hydroxy-1-methyl-5-[3-(4-phenylpiperidino)propyl]-1,4,5,6,7,8-hexahydropyrrolo-[3,2-c]azepin-4-one]",14.9 % of Control,54.7 % of Control,90.7 % of Control,94.0 % of Control,99.3 % of Control
"Cn1ccc2c1C(O)CCN(CCCN1CCC(C(=O)c3ccc(F)cc3)CC1)C2=O (stereo not drawn) [Compound No. 75, 5-[3-[4-(4-fluorobenzoyl)piperidino]-propyl]-8-hydroxy-1-methyl-1,4,5,6,7,8-hexahydropyrrolo[3,2-c]azepin-4-one]",25.2 % of Control,71.7 % of Control,,70.3 % of Control,98.3 % of Control
"Cn1ccc2c1C(O)CCN(CCCN1CCN(c3ccc(F)cc3)CC1)C2=O (stereo not drawn) [Compound No. 57, 5-[3-[4-(4-fluorophenyl)piperazin-1-yl]propyl]-8-hydroxy-1-methyl-1,4,5,6,7,8-hexahydropyrrolo[3,2-c]azepin-4-one]",7.5 % of Control,12.0 % of Control,54.6 % of Control,91.4 % of Control,100 % of Control
"Cn1ccc2c1C=CCN(CCCN1CCN(c3ccc(Cl)cc3)CC1)C2=O [Compound No. 79, 5-[3-[4-(4-chlorophenyl)piperazin-1-yl]propyl]-1-methyl-1,4,5,6-tetrahydropyrrolo[3,2-c]azepin-4-one]",,31.8 % of Control,78.3 % of Control,58.1 % of Control,94.8 % of Control
"COC1CCN(CCCN2CCN(c3ccc(Cl)cc3)CC2)C(=O)c2ccn(C)c21 (stereo not drawn) [Compound No. 76, 5-[3-[4-(4-chlorophenyl)piperazin-1-yl]propyl]-8-methoxy-1-methyl-1,4,5,6,7,8-hexahydropyrrolo[3,2-c]azepin-4-one]",7.2 % of Control,35.5 % of Control,,88.1 % of Control,98.9 % of Control
Cn1ccc2c1[C@H](O)CCN(CCCN1CCN(c3ccc(F)cc3)CC1)C2=O [Compound No. 84],11.9 % of Control,61.9 % of Control,82.0 % of Control,92.4 % of Control,100 % of Control
"O=C1c2ccn(Cc3ccccc3)c2C(O)CCN1CCCN1CCN(c2ccc(F)cc2)CC1 (stereo not drawn) [Compound No. 62, 1-benzyl-5-[3-[4-(4-fluorophenyl)piperazin-1-yl]propyl]-8-hydroxy-1,4,5,6,7,8-hexahydropyrrolo[3,2-c]azepin-4-one]",11.1 % of Control,50.6 % of Control,,31.7 % of Control,95.0 % of Control
"Cn1ccc2c1C(=NO)CCN(CCCN1CCN(c3ccc(F)cc3)CC1)C2=O [Compound No. 53, 5-[3-[4-(4-fluorophenyl)piperazin-1-yl]propyl]-8-hydroxyimino-1-methyl-1,4,5,6,7,8-hexahydropyrrolo[3,2-c]azepin-4-one]",48.2 % of Control,87.1 % of Control,,60.1 % of Control,86.1 % of Control
"Cn1ccc2c1C(=O)CCN(CCCN1CCC(c3noc4cc(F)ccc34)CC1)C2=O [Compound No. 50, 5-[3-[4-(6-fluoro-1,2-benzisoxazol-3-yl)piperidino]propyl]-1-methyl-1,4,5,6,7,8-hexahydropyrrolo[3,2-c]azepine-4,8-dione]",,25.1 % of Control,67.5 % of Control,34.2 % of Control,67.1 % of Control
"Cc1cn(C)c2c1C(=O)N(CCCN1CCN(c3ccc(F)cc3)CC1)CCC2O (stereo not drawn) [Compound No. 59, 5-[3-[4-(4-fluorophenyl)piperazin-1-yl]propyl]-8-hydroxy-1,3-dimethyl-1,4,5,6,7,8-hexahydropyrrolo[3,2-c]azepin-4-one]",,12.5 % of Control,48.5 % of Control,47.3 % of Control,81.6 % of Control
"O=C1c2ccn(-c3ccccc3)c2C(O)CCN1CCCN1CCN(c2ccc(F)cc2)CC1 (stereo not drawn) [Compound No. 61, 5-[3-[4-(4-fluorophenyl)piperazin-1-yl]propyl]-8-hydroxy-1-phenyl-1,4,5,6,7,8-hexahydropyrrolo[3,2-c]azepin-4-one]",37.3 % of Control,74.3 % of Control,,39.4 % of Control,96.1 % of Control
"Cn1ccc2c1C1(CCN(CCCN3CCN(c4ccc(F)cc4)CC3)C2=O)SCCS1 [Compound No. 52, 5-[3-[4-(4-fluorophenyl)piperazin-1-yl]propyl]-1-methyl-1,4,5,6,7,8-hexahydropyrrolo-[3,2-c]azepin-4-one-8-spiro-2′-(1′,3′-dithiolane)]",,20.9 % of Control,75.5 % of Control,75.8 % of Control,96.8 % of Control
"Cn1ccc2c1C(O)CCN(CCN1CCN(c3ccc(F)cc3)CC1)C2=O (stereo not drawn) [Compound No. 56, 5-[2-[4-(4-fluorophenyl)piperazin-1-yl]ethyl]-8-hydroxy-1-methyl-1,4,5,6,7,8-hexahydropyrrolo[3,2-c]azepin-4-one]",47.9 % of Control,90.2 % of Control,,71.4 % of Control,96.7 % of Control
"Cn1cc2c(c1)/C(=N\O)CCN(CCCN1CCN(c3ccc(F)cc3)CC1)C2=O [Compound No. 55, 5-[3-[4-(4-fluorophenyl)piperazin-1-yl]propyl]-8-[(Z)-hydroxyimino]-2-methyl-2,4,5,6,7,8-hexahydropyrrolo[3,4-c]azepin-4-one]",11.0 % of Control,59.5 % of Control,,73.5 % of Control,97.6 % of Control
"Cn1ccc2c1CCCN(CCCN1CCN(c3ccc(F)cc3)CC1)C2=O [Compound No. 82, 5-[3-[4-(4-fluorophenyl)piperazin-1-yl]propyl]-1-methyl-1,4,5,6,7,8-hexahydropyrrolo-[3,2-c]azepin-4-one]",,8.4 % of Control,35.2 % of Control,37.6 % of Control,87.6 % of Control
